Data reported in the NIST ThermoML archive (doi:10.1021/je0501890).

Assay: xn = mol fraction of the nth substance listed
Details: 101.33 kPa, Liquid

ClC(Cl)C(Cl)Cl [1,1,2,2-tetrachloroethane] + CCCCCCCO
Details | mass density, 293.15 K [kg/m3] | mass density, 298.15 K [kg/m3] | mass density, 303.15 K [kg/m3] | viscosity, 293.15 K [mPa·s] | viscosity, 298.15 K [mPa·s] | viscosity, 303.15 K [mPa·s]
x2 = 0.0506 | 1541.06 | 1533.58 | 1526.03 | – | – | –
x2 = 0.0997 | – | – | – | 1.852 | 1.69 | 1.547
x2 = 0.1031 | 1488.84 | 1481.6 | 1474.35 | – | – | –
x2 = 0.1519 | 1442.21 | 1435.22 | 1428.22 | – | – | –
x2 = 0.2003 | 1397.58 | 1390.83 | 1384.07 | – | – | –
x2 = 0.2073 | – | – | – | 2.091 | 1.907 | 1.71
x2 = 0.2515 | 1351.89 | 1345.42 | 1338.9 | – | – | –
x2 = 0.2998 | 1310.19 | 1303.92 | 1297.68 | – | – | –
x2 = 0.3054 | – | – | – | 2.417 | 2.187 | 1.927
x2 = 0.3445 | – | – | – | 2.558 | 2.272 | 2.027
x2 = 0.3499 | 1268.42 | 1262.39 | 1256.35 | – | – | –
x2 = 0.4085 | – | – | – | 2.833 | 2.506 | 2.225
x2 = 0.4109 | 1219.27 | 1213.55 | 1207.77 | – | – | –
x2 = 0.4464 | 1191.47 | 1185.87 | 1180.31 | – | – | –
x2 = 0.5042 | – | – | – | 3.341 | 2.908 | 2.555
x2 = 0.5113 | 1142.28 | 1136.96 | 1131.65 | – | – | –
x2 = 0.5438 | – | – | – | 3.564 | 3.101 | 2.715
x2 = 0.5524 | 1112.04 | 1106.9 | 1101.73 | – | – | –
x2 = 0.5988 | – | – | – | 3.924 | 3.392 | 2.962
x2 = 0.6013 | 1077.03 | 1072.05 | 1067.13 | – | – | –
x2 = 0.6506 | 1042.68 | 1037.91 | 1033.17 | – | – | –
x2 = 0.6937 | – | – | – | 4.654 | 3.992 | 3.429
x2 = 0.6959 | 1011.91 | 1007.34 | 1002.73 | – | – | –
x2 = 0.7507 | 975.7 | 971.35 | 966.91 | – | – | –
x2 = 0.753 | – | – | – | 5.166 | 4.389 | 3.763
x2 = 0.8001 | 943.88 | 939.68 | 935.48 | – | – | –
x2 = 0.8007 | – | – | – | 5.595 | 4.737 | 4.035
x2 = 0.8505 | 912.27 | 908.25 | 904.23 | – | – | –
x2 = 0.8971 | – | – | – | 6.506 | 5.365 | 4.627
x2 = 0.8979 | 883.17 | 879.34 | 875.45 | – | – | –
x2 = 0.9513 | 851.1 | 847.45 | 843.75 | – | – | –

CCCCCCCO [heptan-1-ol] + ClCCCl
Details | mass density, 293.15 K [kg/m3] | mass density, 298.15 K [kg/m3] | mass density, 303.15 K [kg/m3] | viscosity, 293.15 K [mPa·s] | viscosity, 298.15 K [mPa·s] | viscosity, 303.15 K [mPa·s]
x1 = 0.0502 | 1213.23 | 1206.24 | 1199.3 | – | – | –
x1 = 0.1023 | – | – | – | 0.922 | 0.851 | 0.796
x1 = 0.1024 | 1175.9 | 1169.21 | 1162.55 | – | – | –
x1 = 0.1493 | 1145.01 | 1138.62 | 1132.15 | – | – | –
x1 = 0.2009 | – | – | – | 1.104 | 1.006 | 0.928
x1 = 0.2511 | 1085.65 | 1079.74 | 1073.87 | – | – | –
x1 = 0.2957 | – | – | – | 1.342 | 1.215 | 1.105
x1 = 0.3445 | 1038.38 | 1032.88 | 1027.38 | – | – | –
x1 = 0.3465 | – | – | – | 1.501 | 1.353 | 1.227
x1 = 0.3896 | 1017.38 | 1012.13 | 1006.83 | – | – | –
x1 = 0.4198 | 1004.18 | 999.04 | 993.91 | – | – | –
x1 = 0.455 | 989.42 | 984.4 | 979.35 | – | – | –
x1 = 0.4616 | – | – | – | 1.939 | 1.732 | 1.546
x1 = 0.5017 | 970.85 | 966 | 961.14 | – | – | –
x1 = 0.5035 | – | – | – | 2.139 | 1.901 | 1.699
x1 = 0.5437 | – | – | – | 2.355 | 2.079 | 1.844
x1 = 0.551 | 952.41 | 947.76 | 943.04 | – | – | –
x1 = 0.5998 | – | – | – | 2.703 | 2.367 | 2.089
x1 = 0.6036 | 933.66 | 929.17 | 924.63 | – | – | –
x1 = 0.6481 | 918.87 | 914.5 | 910.13 | – | – | –
x1 = 0.6602 | 914.96 | 910.61 | 906.29 | – | – | –
x1 = 0.6956 | 903.77 | 899.55 | 895.28 | – | – | –
x1 = 0.6972 | – | – | – | 3.412 | 2.955 | 2.583
x1 = 0.7475 | – | – | – | 3.887 | 3.354 | 2.905
x1 = 0.748 | 887.98 | 883.88 | 879.79 | – | – | –
x1 = 0.7974 | 873.84 | 869.91 | 865.91 | – | – | –
x1 = 0.7978 | – | – | – | 4.397 | 3.773 | 3.253
x1 = 0.8548 | 858.28 | 854.47 | 850.61 | – | – | –
x1 = 0.8862 | – | – | – | 5.474 | 4.65 | 3.979
x1 = 0.8898 | 849.21 | 845.44 | 841.7 | – | – | –
x1 = 0.9489 | 834.67 | 831.05 | 827.43 | – | – | –
